# Source: patent US10717720B2, “Modified compound of andrographolide” (Heilongjiang Zhenbaodao Pharmaceutical Co., Ltd., priority 2015, dated 2020)
# Read-outs that look alike come from different tables or passages of the source.
# Tested on: LPS-induced IL-6 release level from THP-1 cells
# Test: Test of IL-6 release from THP-1 cells (LPS-induced, IL-6 in supernatant detected by CBA)
# Assay type: cell-based
# Conditions: Homo sapiens, read-out: Inhibition rate @ 10 uM
# Procedure: Test of IL-6 Release from THP-1 Cells
# The inhibitory effect of the compound on LPS-induced IL-6 release level from THP-1 cells was evaluated by measuring the level of IL-6 in the cell culture supernatant.
# 4 ul was taken from each above solution and added to lml of culture solution to make 120 uM, 40 uM, 12 uM, 4 uM. 50 ul per well was taken and added to wells with cells to give final concentrations of 30 uM, 10 uM, 3 uM, and 1 uM, respectively. Dexamethasone was added as a positive drug into an individual cell well with a final concentration of 100 nM. • c) Cell stimulation
# The LPS 1 mg/ml solution was diluted to 800 ng/ml with the culture solution and added to the cell culture wells at 50 ul/well. • d) Cell incubation and detection
# The cell culture plate was placed in a 37° C. incubator, and the supernatant was collected after culturing for 24 hours. The level of IL-6 in the supernatant was detected by CBA.
# [1] = inflammatory factor IL-6 detected by CBA, compound 10 uM, LPS-stimulated THP-1 cells, supernatant after 24 hours
Structure (SMILES),inhibition at 10 µM [1] [%],"inhibition at 10 µM (THP-1, 24 h) [%]"
"C=C1CCC2[C@]3(C)CO[C@@H](C4CCCC4)O[C@@H]3CC[C@@]2(C)[C@@H]1CCOc1ccccn1 (stereo partly drawn) [Compound 317, 2-(2-((3R,4aR,6aS,7R,10bR)-3-cyclopentyl-6a,10b-dimethyl-8-dihydromethylenedecahydro-1H-naphtho[2,1-d][1,3]dioxin-7-yl)ethoxy) pyridine]",> 60,
"C=C1CCC2[C@]3(C)CO[C@@H](C4CCCC4)O[C@@H]3CC[C@@]2(C)[C@@H]1CCOc1ccnc(C)c1 (stereo partly drawn) [Compound 319, 4-(2-((3R,4aR,6aS,7R,10bR)-3-cyclopentyl-6a,10b-dimethyl-8-dihydromethylenedecahydro-1H-naphtho[2,1-d][1,3]dioxin-7-yl)ethoxy)-2-methylpyridine]",30 to 60,
"C=C1CCC2[C@]3(C)CO[C@@H](C4CCCC4)O[C@@H]3CC[C@@]2(C)[C@@H]1CCOc1ccnc(N)c1 (stereo partly drawn) [Compound 321, 4-(2-((3R,4aR,6aS,7R,10bR)-3-cyclopentyl-6a,10b-dimethyl-8-dihydromethylenedecahydro-1H-naphtho[2,1-d][1,3]dioxin-7-yl)ethoxy)-pyridin-2-amine]",< 30,
C=C1CCC2[C@]3(C)CO[C@@H](C4CCCC4)O[C@@H]3CC[C@@]2(C)[C@@H]1CCOc1ccncc1N (stereo partly drawn) [Compound 339],< 30,
"C=C1CCC2[C@]3(C)CO[C@@H](C4CCCC4)O[C@@H]3CC[C@@]2(C)[C@@H]1CCOc1ccncc1F (stereo partly drawn) [Compound 344, 4-(2-((3R,4aR,6aS,7R,10bR)-3-cyclopentyl-6a,10b-dimethyl-8-dihydromethylenedecahydro-1H-naphtho[2,1-d][1,3]dioxin-7-yl)ethoxy)-3-fluoropyridine]",> 60,
"C=C1CCC2[C@]3(C)CO[C@@H](C4CCCC4)O[C@@H]3CC[C@@]2(C)[C@@H]1CCNc1ccncc1F (stereo partly drawn) [Compound 345, N-(2-((3R,4aR,6aS,7R,10bR)-3-cyclopentyl-6a,10b-dimethyl-8-decahydromethylene-1H-naphtho[2,1-d][1,3]dioxin-7-yl)ethyl)-3-fluoropyridin-4-amine]",,30 to 60
"C=C1CCC2[C@]3(C)CO[C@@H](C4CCCC4)O[C@@H]3CC[C@@]2(C)[C@@H]1CCOc1ccncc1C#N (stereo partly drawn) [Compound 349, 4-(2-((3R,4aR,6aS,7R,10bR)-3-cyclopentyl-6a,10b-dimethyl-8-dihydromethylenedecahydro-1H-naphtho[2,1-d][1,3]dioxin-7-yl)ethoxy)cyanopyridine]",> 60,
"C=C1CCC2[C@]3(C)CO[C@@H](C4CCCC4)O[C@@H]3CC[C@@]2(C)[C@@H]1CCOCc1ccncc1 (stereo partly drawn) [Compound 351, 4-((2-((3R,4aR,6aS,7R,10bR)-3-cyclopentyl-6a,10b-dimethyl-8-dihydromethylenedecahydro-1H-naphtho[2,1-d][1,3]dioxin-7-yl)ethoxy)methyl)pyridine]",> 60,
C=C1CCC2[C@]3(C)CO[C@@H](C4CCCC4)O[C@@H]3CC[C@@]2(C)[C@@H]1CCN1CC(CO)C1 (stereo partly drawn) [Compound 355],< 30,
"C=C1CCC2[C@]3(C)CO[C@@H](C4CCCC4)O[C@@H]3CC[C@@]2(C)[C@@H]1CCOc1ccn(C)c(=O)c1 (stereo partly drawn) [Compound 357, 4-(2-((3R,4aR,6aS,7R,10bR)-3-cyclopentyl-6a,10b-dimethyl-8-dihydromethylenedecahydro-1H-naphtho[2,1-d][1,3]dioxin-7-yl)ethoxy)-1-methylpyridin-2(1H)-one]",> 60,
"C=C1CCC2[C@]3(C)CO[C@@H](C4CCCC4)O[C@@H]3CC[C@@]2(C)[C@@H]1CCOC1CCN(C)CC1 (stereo partly drawn) [Compound 366, 4-(2-((3R,4aR,6aS,7R,10bR)-3-cyclopentyl-6a,10b-dimethyl-8-dihydromethylenedecahydro-1H-naphtho[2,1-d][1,3]dioxin-7-yl)ethoxy)-1-methylpiperidine]",> 60,
"C=C1CCC2[C@]3(C)CO[C@@H](C4CCCC4)O[C@@H]3CC[C@@]2(C)[C@@H]1CCOC1CCN(C(=O)CN)CC1 (stereo partly drawn) [Compound 373, 2-Amino-1-(4-(2-((3R,4aR,6aS,7R,10bR)-3-cyclopentyl-6a,10b-dimethyl-8-methylenedecahydro-1H-naphtho[2,1-d][1,3]dioxin-7-yl)ethoxy)piperidine-1-yl)acetamide]",,30 to 60
"C=C1CCC2[C@](C)(CO)[C@H](O)CC[C@@]2(C)[C@@H]1CCOc1ccncc1 (stereo partly drawn) [Compound 385, (1R,2R,4aS,5R)-1-(hydroxymethyl)-1,4a-dimethyl-6-dihydromethylene-5-(2-(pyridin-4-oxy)ethyl) decahydronaphthalene-2-ol]",> 60,
"C=C1CCC2[C@](C)(CO)[C@H](O)CC[C@@]2(C)[C@@H]1CCOC1CCN(C)CC1 (stereo partly drawn) [Compound 386, (1R,2R,4aS,5R)-1-(hydroxymethyl)-1,4a-dimethyl-6-dihydromethylene-5-(2-((1-methylpiperidine-4-yl)oxy)ethyl) decahydronaphthalene-2-ol]",< 30,
"C=C1CCC2[C@]3(C)CO[C@@H](C4CCCC4)O[C@@H]3CC[C@@]2(C)[C@@H]1CCOc1ccncc1C(=O)O (stereo partly drawn) [Compound 397, 4-(2-((3R,4aR,6aS,7R,10bR)-3-cyclopentyl-6a,10b-dimethyl-8-dihydromethylenedecahydro-1H-naphtho[2,1-d][1,3]dioxin-7-yl)ethoxy)nicotinic acid]",> 60,
"C=C1CCC2[C@]3(C)CO[C@@H](C4CCCC4)O[C@@H]3CC[C@@]2(C)[C@@H]1CCO (stereo partly drawn) [Compound 399, 2-((3R,4aR,6aS,7R,10bR)-3-cyclopentyl-6a,10b-dimethyl-8-dihydromethylenedecahydro-1H-naphtho[2,1-d][1,3]dioxin-7-yl)ethanol]",> 60,
"C=C1CCC2[C@]3(C)CO[C@@H](C4CC4)O[C@@H]3CC[C@@]2(C)[C@@H]1CCOc1ccncc1 (stereo partly drawn) [Compound 400, 4-(2-((3R,4aR,6aS,7R,10bR)-3-cyclopropyl-6a,10b-dimethyl-8-dihydromethylenedecahydro-1H-naphtho[2,1-d][1,3]dioxin-7-yl)ethoxy)pyridine]",> 60,
"C=C1CCC2[C@]3(C)COC(C)(C)O[C@@H]3CC[C@@]2(C)[C@@H]1CCOc1ccncc1 (stereo partly drawn) [Compound 402, 4-(2-((4aR,6aS,7R,10bR)-3,3,6a, 10b-tetramethyl-8-dihydromethylenedecahydro-1H-naphtho[2,1-d][1,3]dioxin-7-yl)ethoxy)pyridine]",> 60,
"C=C1CCC2[C@]3(C)CO[C@@H](C4CCCC4)O[C@@H]3CC[C@@]2(C)[C@@H]1CCNCC(=O)O (stereo partly drawn) [Compound 403, 2-((2-((3R,4aR,6aS,7R,10bR)-3-cyclopentyl-6a,10b-dimethyl-8-methylenedecahydro-1H-naphtho[2,1-d][1,3]dioxin-7-yl)ethyl)amino)acetic acid]",< 30,
"C=C1CCC2[C@]3(C)CO[C@@H](C4CCCC4)O[C@@H]3CC[C@@]2(C)[C@@H]1CCN(CC(=O)O)CC(=O)O (stereo partly drawn) [Compound 404, 2,2′-((2-((3R,4aR,6aS,7R,10bR)-3-cyclopentyl-6a,10b-dimethyl-8-methylene-decahydro-1H-naphtho[2,1-d][1,3]dioxin-7-yl)ethyl)azanediyl)diacetic acid]",,< 30
C=C1CCC2[C@]3(C)CO[C@@H](CCC(=O)OC)O[C@@H]3CC[C@@]2(C)[C@@H]1CCOc1ccncc1 (stereo partly drawn) [Compound 405],< 30,
"C=C1CCC2[C@]3(C)CO[C@@H](C4CCCC4)O[C@@H]3CC[C@@]2(C)[C@@H]1CCOc1cncc(C(=O)O)c1 (stereo partly drawn) [Compound 406, 5-(2-((3R,4aR,6aS,7R,10bR)-3-cyclopentyl-6a,10b-dimethyl-8-dihydromethylenedecahydro-1H-naphtho[2,1-d][1,3]dioxin-7-yl)ethoxy)nicotinic acid]",,< 30
"C=C1CCC2[C@]3(C)CO[C@@H](C4CCCC4)O[C@@H]3CC[C@@]2(C)[C@@H]1CCOc1ccccc1C(=O)O (stereo partly drawn) [Compound 407, 2-(2-((3R,4aR,6aS,7R,10bR)-3-cyclopentyl-6a,10b-dimethyl-8-dihydromethylenedecahydro-1H-naphtho[2,1-d][1,3]dioxin-7-yl)ethoxy)benzoic acid]",> 60,
C=C1CCC2[C@]3(C)CO[C@@H](CCC(=O)O)O[C@@H]3CC[C@@]2(C)[C@@H]1CCOc1ccncc1 (stereo partly drawn) [Compound 408],< 30,
"C=C1CCC2[C@]3(C)CO[C@@H](C4CCCC4)O[C@@H]3CC[C@@]2(C)[C@@H]1CCOc1ccc(F)cc1C(=O)O (stereo partly drawn) [Compound 409, 2-(2-((3R,4aR,6aS,7R,10bR)-3-cyclopentyl-6a,10b-dimethyl-8-dihydromethylenedecahydro-1H-naphtho[2,1-d][1,3]dioxin-7-yl)ethoxy)-5-fluorobenzoic acid]",< 30,
"C=C1CCC2[C@]3(C)CO[C@@H](C4CCCC4)O[C@@H]3CC[C@@]2(C)[C@@H]1CCOc1ccnc(C(=O)O)c1 (stereo partly drawn) [Compound 410, 4-(2-((3R,4aR,6aS,7R,10bR)-3-cyclopentyl-6a,10b-dimethyl-8-dihydromethylenedecahydro-1H-naphtho[2,1-d][1,3]dioxin-7-yl)ethoxy)picolinic acid]",30 to 60,
"C=C1CCC2[C@]3(C)CO[C@@H](C(C)C)O[C@@H]3CC[C@@]2(C)[C@@H]1CCOc1ccncc1 (stereo partly drawn) [Compound 411, 4-(2-((3R,4aR,6aS,7R,10bR)-3-isopropyl-6a,10b-dimethyl-8-dihydromethylenedecahydro-1H-naphtho[2,1-d][1,3]dioxin-7-yl)ethoxy)pyridine]",> 60,
